According to patent US11814444B2, “Cyclic polypeptides for PCSK9 inhibition” (Ra Pharmaceuticals, Inc., priority 2018, dated 2023):
Numbered stars: 1 amine (or outer) side, 2 acyl side, 3 side chain; on linkers, the order of the positions; unused ones are H or OH. Bridge positions count the residues as written; N and C are the ends. Square brackets hold non-standard residues; d marks the D form. Peptide text beside a SMILES is read from it. Trp(7-aza) = N[C@@H](Cc1c[nH]c2ncccc12)C(=O)O; NMeW = CN[C@@H](Cc1c[nH]c2ccccc12)C(=O)O; 2Nal = N[C@@H](Cc1ccc2ccccc2c1)C(=O)O; Ac4c(3,3-F2) = NC1(C(=O)O)CC(F)(F)C1; mXylylene = c1cc(C[*:1])cc(C[*:2])c1; Bta = N[C@@H](Cc1csc2ccccc12)C(=O)O; Gly(octyl) = CCCCCCCC[C@H](N)C(=O)O; Val(3-OH) = CC(C)(O)[C@H](N)C(=O)O; Aic = NC1(C(=O)O)Cc2ccccc2C1; Chg = N[C@H](C(=O)O)C1CCCCC1; PEG4 = NCCOCCOCCOCCOCCC(=O)O; Tle = CC(C)(C)[C@H](N)C(=O)O; αMeV = CC(C)[C@](C)(N)C(=O)O; hSer = N[C@@H](CCO)C(=O)O; Iva = CC[C@](C)(N)C(=O)O; Nva = CCC[C@H](N)C(=O)O; Ac4c = NC1(C(=O)O)CCC1; Mpa = O=C(O)CCS

Target: human PCSK9 / human LDLR EGFa domain interaction (Homo sapiens, UniProt Q8NBP7)
Sequence (Q8NBP7 153-692): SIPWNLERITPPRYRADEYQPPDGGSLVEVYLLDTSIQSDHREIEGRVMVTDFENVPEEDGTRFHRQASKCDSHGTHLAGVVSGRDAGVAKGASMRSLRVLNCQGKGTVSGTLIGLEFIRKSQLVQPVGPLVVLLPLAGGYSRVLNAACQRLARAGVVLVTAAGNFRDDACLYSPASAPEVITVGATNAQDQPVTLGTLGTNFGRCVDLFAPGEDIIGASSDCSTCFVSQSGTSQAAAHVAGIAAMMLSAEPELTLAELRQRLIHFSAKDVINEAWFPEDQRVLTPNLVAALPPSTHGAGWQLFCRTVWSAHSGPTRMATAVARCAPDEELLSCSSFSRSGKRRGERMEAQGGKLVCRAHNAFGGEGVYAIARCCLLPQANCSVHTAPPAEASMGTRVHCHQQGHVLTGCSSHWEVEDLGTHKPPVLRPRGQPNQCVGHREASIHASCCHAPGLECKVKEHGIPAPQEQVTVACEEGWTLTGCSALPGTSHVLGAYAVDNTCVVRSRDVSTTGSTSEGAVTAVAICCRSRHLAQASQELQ
Sequence (Q8NBP7 31-152 partner limits assumed): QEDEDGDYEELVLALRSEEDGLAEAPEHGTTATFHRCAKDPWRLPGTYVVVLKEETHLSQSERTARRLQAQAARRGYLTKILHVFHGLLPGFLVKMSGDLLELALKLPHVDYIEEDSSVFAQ
Experiment: TR-FRET assay of inhibition of the PCSK9-LDLR protein-protein interaction
Assay type: binding
Conditions: 20 nM avitag-biotinylated human PCSK9, 20 nM his-tagged human LDLR EGFa domain, 2 hours, room temperature
Procedure: A time-resolved fluorescence resonance energy (TR-FRET) assay was used to measure inhibition of the PCSK9-LDLR protein-protein interaction. Briefly, 20 nM avitag-biotinylated human PCSK9 was incubated with 20 nM his-tagged human LDLR EGFa domain in the presence of 5 nM LANCE Ulight Streptavidin (Perkin Elmer) and 5 nM europium-Anti-6×His (Perkin Elmer) for 2 hours covered at room temperature in buffer containing 50 mM HEPES, 150 mM NaCl, 5 mM CaCl2), 0.01% BSA and 0.01% Surfactant P20. Compounds were tested in dose-response and concentrations giving half-maximal inhibition calculated using a 4-parameter fit equation.

## CCC[C@@H]1NC(=O)[C@H](Cc2c[nH]c3ncccc23)NC(=O)[C@H]([C@@H](C)O)NC(=O)[C@@H]2CCCN2C(=O)[C@H](Cc2ccc(O)cc2)NC(=O)[C@H](C(C)(C)C)NC(=O)CCSCc2cccc(c2)CSC[C@@H](C(N)=O)NC(=O)[C@H]([C@@H](C)O)NC(=O)[C@H](CCC)NC(=O)[C@H](Cc2ccc(O)cc2)NC(=O)[C@H](CCO)NC1=O [Compound 158] ([Mpa][Tle]YPT[Trp(7-aza)][Nva][hSer]Y[Nva]TC-NH2; linker 1-12 via mXylylene)
  IC50: 1 to 21 µM

## CCC[C@@H]1NC(=O)[C@H](Cc2c[nH]c3ncccc23)NC(=O)[C@H]([C@@H](C)O)NC(=O)[C@@H]2CCCN2C(=O)[C@H](Cc2ccc(O)cc2)NC(=O)[C@H](C(C)(C)C)NC(=O)CCSCc2cccc(c2)CSC[C@@H](C(N)=O)NC(=O)[C@H](CCC(=O)O)NC(=O)[C@H](CCC)NC(=O)[C@H](Cc2ccc(O)cc2)NC(=O)[C@H](C)NC1=O [Compound 159] ([Mpa][Tle]YPT[Trp(7-aza)][Nva]AY[Nva]EC-NH2; linker 1-12 via mXylylene)
  IC50: 1 to 21 µM

## CCC[C@@H]1NC(=O)[C@H](Cc2c[nH]c3ncccc23)NC(=O)[C@H]([C@@H](C)O)NC(=O)[C@@H]2CCCN2C(=O)[C@H](Cc2ccc(O)cc2)NC(=O)[C@H](C(C)(C)C)NC(=O)CCSCc2cccc(c2)CSC[C@@H](C(N)=O)NC(=O)[C@H]([C@@H](C)O)NC(=O)[C@H](CCC(=O)O)NC(=O)[C@H](Cc2ccc(O)cc2)NC(=O)[C@H](C)NC1=O [Compound 160] ([Mpa][Tle]YPT[Trp(7-aza)][Nva]AYETC-NH2; linker 1-12 via mXylylene)
  IC50: 0.1 to 1 µM

## CCC[C@@H]1NC(=O)[C@H](Cc2c[nH]c3ncccc23)NC(=O)[C@H]([C@@H](C)O)NC(=O)[C@@H]2CCCN2C(=O)[C@H](Cc2ccc(O)cc2)NC(=O)[C@H](C(C)(C)C)NC(=O)CCSCc2cccc(c2)CSC[C@@H](C(=O)NCCOCCOCCOCCOCCC(N)=O)NC(=O)[C@H]([C@@H](C)O)NC(=O)[C@H](CCC)NC(=O)[C@H](Cc2ccc(O)cc2)NC(=O)[C@H](C)NC1=O [Compound 163] ([Mpa][Tle]YPT[Trp(7-aza)][Nva]AY[Nva]TC[PEG4]-NH2; linker 1-12 via mXylylene)
  IC50: 0.1 to 1 µM

## CCCCCCCC[C@@H]1NC(=O)[C@H](Cc2c[nH]c3ncccc23)NC(=O)[C@H]([C@@H](C)O)NC(=O)[C@@H]2CCCN2C(=O)[C@H](Cc2ccc(O)cc2)NC(=O)[C@H](C(C)(C)C)NC(=O)CCSCc2cccc(c2)CSC[C@@H](C(N)=O)NC(=O)[C@H]([C@@H](C)O)NC(=O)[C@H](CCC)NC(=O)[C@H](Cc2ccc(O)cc2)NC(=O)[C@H](C)NC1=O [Compound 169] ([Mpa][Tle]YPT[Trp(7-aza)][Gly(octyl)]AY[Nva]TC-NH2; linker 1-12 via mXylylene)
  IC50: 0.1 to 1 µM

## CCC[C@@H]1NC(=O)[C@H](Cc2c[nH]c3ncccc23)NC(=O)[C@H]([C@@H](C)O)NC(=O)[C@@H]2CCCN2C(=O)[C@H](Cc2ccc(O)cc2)NC(=O)[C@H](C(C)(C)C)NC(=O)CCSCc2cccc(c2)CSC[C@@H](C(N)=O)NC(=O)[C@H](CCC(=O)O)NC(=O)[C@H](C2CCCCC2)NC(=O)[C@H](Cc2ccc(O)cc2)NC(=O)[C@H](C)NC1=O [Compound 171] ([Mpa][Tle]YPT[Trp(7-aza)][Nva]AY[Chg]EC-NH2; linker 1-12 via mXylylene)
  IC50: 1 to 21 µM

## CCC[C@@H]1NC(=O)[C@H](Cc2ccc(O)cc2)NC(=O)[C@H](C)NC(=O)[C@H](CCC)NC(=O)[C@H](Cc2c[nH]c3ncccc23)NC(=O)[C@H]([C@@H](C)O)NC(=O)[C@@H]2CCCN2C(=O)[C@H](Cc2ccc(O)cc2)NC(=O)[C@H](C(C)(C)C)NC(=O)CCSCc2cccc(c2)CSC[C@@H](C(N)=O)NC(=O)[C@H](C)NC1=O [Compound 172] ([Mpa][Tle]YPT[Trp(7-aza)][Nva]AY[Nva]AC-NH2; linker 1-12 via mXylylene)
  IC50: 1 to 21 µM

## CCC[C@@H]1NC(=O)[C@H]([C@@H](C)O)NC(=O)[C@@H]2CCCN2C(=O)[C@H](Cc2ccc(O)cc2)NC(=O)[C@H](C(C)(C)C)NC(=O)[C@@H](NC(C)=O)CSCc2cccc(c2)CSC[C@@H](C(N)=O)NC(=O)[C@H]([C@@H](C)O)NC(=O)[C@](C)(C(C)C)NC(=O)[C@H](Cc2ccc(O)cc2)NC(=O)[C@H](C)NC1=O [Compound 173] (Ac-C[Tle]YPT[Nva]AY[αMeV]TC-NH2; linker 1-11 via mXylylene)
  IC50: 0.1 to 1 µM

## CCC[C@@H]1NC(=O)[C@H](Cc2c[nH]c3ccccc23)NC(=O)[C@H]([C@@H](C)O)NC(=O)[C@@H]2CCCN2C(=O)[C@H](Cc2ccc(O)cc2)NC(=O)[C@H](C(C)(C)C)NC(=O)CCSCc2cccc(c2)CSC[C@@H](C(N)=O)NC(=O)[C@H]([C@@H](C)O)NC(=O)[C@](C)(C(C)C)NC(=O)[C@H](Cc2ccc(O)cc2)NC(=O)[C@H](C)NC1=O [Compound 177] ([Mpa][Tle]YPTW[Nva]AY[αMeV]TC-NH2; linker 1-12 via mXylylene)
  IC50: 1 to 21 µM

## CC[C@]1(C)NC(=O)[C@H](Cc2c[nH]c3ncccc23)NC(=O)[C@H]([C@@H](C)O)NC(=O)[C@@H]2CCCN2C(=O)[C@H](Cc2ccc(O)cc2)NC(=O)[C@H](C(C)(C)C)NC(=O)[C@@H](NC(C)=O)CSCc2cccc(c2)CSC[C@H](C(N)=O)NC(=O)[C@H]([C@@H](C)O)NC(=O)[C@](C)(C(C)C)NC(=O)[C@H](Cc2ccc(O)cc2)NC(=O)[C@H](C)NC1=O [Compound 193] (Ac-C[Tle]YPT[Trp(7-aza)][Iva]AY[αMeV]T[dC]-NH2; linker 1-12 via mXylylene)
  IC50: 0.001 to 0.1 µM

## CC(=O)N[C@H]1CSCc2cccc(c2)CSC[C@H](C(N)=O)NC(=O)[C@H]([C@@H](C)O)NC(=O)[C@](C)(C(C)C)NC(=O)[C@H](Cc2ccc(O)cc2)NC(=O)[C@H](C)NC(=O)C2(CCC2)NC(=O)[C@H](Cc2c[nH]c3ncccc23)NC(=O)[C@H](C(C)(C)O)NC(=O)[C@@H]2CCCN2C(=O)[C@H](Cc2ccc(O)cc2)NC(=O)[C@H](C(C)(C)C)NC1=O [Compound 194] (Ac-C[Tle]YP[Val(3-OH)][Trp(7-aza)][Ac4c]AY[αMeV]T[dC]-NH2; linker 1-12 via mXylylene)
  IC50: 0.001 to 0.1 µM

## CC(=O)N[C@H]1CSCc2cccc(c2)CSC[C@H](C(N)=O)NC(=O)[C@H]([C@@H](C)O)NC(=O)[C@](C)(C(C)C)NC(=O)[C@H](Cc2ccc(O)cc2)NC(=O)[C@H](C)NC(=O)C2(CC(F)(F)C2)NC(=O)[C@H](Cc2c[nH]c3ncccc23)NC(=O)[C@H]([C@@H](C)O)NC(=O)[C@@H]2CCCN2C(=O)[C@H](Cc2ccc(O)cc2)NC(=O)[C@H](C(C)(C)C)NC1=O [Compound 195] (Ac-C[Tle]YPT[Trp(7-aza)][Ac4c(3,3-F2)]AY[αMeV]T[dC]-NH2; linker 1-12 via mXylylene)
  IC50: 1 to 21 µM

## CC(=O)N[C@H]1CSCc2cccc(c2)CSC[C@H](C(N)=O)NC(=O)[C@H]([C@@H](C)O)NC(=O)[C@](C)(C(C)C)NC(=O)[C@H](Cc2ccc(O)cc2)NC(=O)[C@H](C)NC(=O)C2(Cc3ccccc3C2)NC(=O)[C@H](Cc2c[nH]c3ncccc23)NC(=O)[C@H]([C@@H](C)O)NC(=O)[C@@H]2CCCN2C(=O)[C@H](Cc2ccc(O)cc2)NC(=O)[C@H](C(C)(C)C)NC1=O [Compound 196] (Ac-C[Tle]YPT[Trp(7-aza)][Aic]AY[αMeV]T[dC]-NH2; linker 1-12 via mXylylene)
  IC50: 0.1 to 1 µM

## CCC[C@@H]1NC(=O)[C@H](Cc2c[nH]c3ncccc23)NC(=O)[C@H]([C@@H](C)O)NC(=O)[C@@H](Cc2cnc[nH]2)NC(=O)[C@H](Cc2ccc(O)cc2)NC(=O)[C@H](C(C)(C)C)NC(=O)CCSCc2cccc(c2)CSC[C@@H](C(N)=O)NC(=O)[C@H]([C@@H](C)O)NC(=O)[C@H](CCC)NC(=O)[C@H](Cc2ccc(O)cc2)NC(=O)[C@H](CCC(=O)O)NC1=O [Compound 204] ([Mpa][Tle]Y[dH]T[Trp(7-aza)][Nva]EY[Nva]TC-NH2; linker 1-12 via mXylylene)
  IC50: 1 to 21 µM

## CCC[C@@H]1NC(=O)[C@H](Cc2ccc(O)cc2)NC(=O)[C@H](CCC(=O)O)NC(=O)[C@H](CCC)NC(=O)[C@H](Cc2c[nH]c3ccccc23)N(C)C(=O)[C@H]([C@@H](C)O)NC(=O)[C@H](Cc2c[nH]cn2)NC(=O)[C@H](Cc2ccc(O)cc2)NC(=O)[C@H](C(C)(C)C)NC(=O)CCSCc2cccc(c2)CSC[C@@H](C(N)=O)NC(=O)[C@H]([C@@H](C)O)NC1=O [Compound 206] ([Mpa][Tle]YHT[NMeW][Nva]EY[Nva]TC-NH2; linker 1-12 via mXylylene)
  IC50: 50 to 100 µM

## CCC[C@@H]1NC(=O)[C@H](Cc2c[nH]c3ncccc23)NC(=O)[C@H]([C@@H](C)O)NC(=O)[C@H](Cc2c[nH]cn2)NC(=O)[C@H](Cc2ccc(O)cc2)NC(=O)[C@H](C(C)(C)C)NC(=O)CCSCc2cccc(c2)CSC[C@@H](C(N)=O)NC(=O)[C@H]([C@@H](C)O)NC(=O)[C@H](CCC)NC(=O)[C@H](Cc2ccc(O)cc2)NC(=O)[C@H](CCO)NC1=O [Compound 274] ([Mpa][Tle]YHT[Trp(7-aza)][Nva][hSer]Y[Nva]TC-NH2; linker 1-12 via mXylylene)
  IC50: 0.1 to 1 µM

## CCC[C@@H]1NC(=O)[C@H](Cc2csc3ccccc23)NC(=O)[C@H]([C@@H](C)O)NC(=O)[C@H](Cc2c[nH]cn2)NC(=O)[C@H](Cc2ccc(O)cc2)NC(=O)[C@H](C(C)(C)C)NC(=O)CCSCc2cccc(c2)CSC[C@@H](C(N)=O)NC(=O)[C@H]([C@@H](C)O)NC(=O)[C@H](CCC)NC(=O)[C@H](Cc2ccc(O)cc2)NC(=O)[C@H](CCC(=O)O)NC1=O [Compound 275] ([Mpa][Tle]YHT[Bta][Nva]EY[Nva]TC-NH2; linker 1-12 via mXylylene)
  IC50: 0.1 to 1 µM

## CCC[C@@H]1NC(=O)[C@H](Cc2ccc3ccccc3c2)NC(=O)[C@H]([C@@H](C)O)NC(=O)[C@H](Cc2c[nH]cn2)NC(=O)[C@H](Cc2ccc(O)cc2)NC(=O)[C@H](C(C)(C)C)NC(=O)CCSCc2cccc(c2)CSC[C@@H](C(N)=O)NC(=O)[C@H]([C@@H](C)O)NC(=O)[C@H](CCC)NC(=O)[C@H](Cc2ccc(O)cc2)NC(=O)[C@H](CCC(=O)O)NC1=O [Compound 276] ([Mpa][Tle]YHT[2Nal][Nva]EY[Nva]TC-NH2; linker 1-12 via mXylylene)
  IC50: 1 to 21 µM
